Values quoted from earlier work, collected in PMC2803440 (Current Chemical Genomics, 2008).
pKi: −log10 of the molar value.

Target: recombinant variant of PON1

With `Oc1ccc2ccccc2n1` [Compound 2HQ, 2-hydroxyquinoline] as the compound, how does the pKi read?
Its pKi is 5.52.
